Experimental data from ChEMBL document CHEMBL1909046, “DrugMatrix in vitro pharmacology data”.

Key:
[1] = DRUGMATRIX: Calcium Channel Type L, Phenylalkylamine radioligand binding (ligand: [3H] (-)-Desmethoxyverapamil (D-888)); assay type: cell membranes, Rattus norvegicus, Wistar, Brain, Membrane; settings: Not Active = under 50% inhibition at 10 µM
[2] = DRUGMATRIX: Calcium Channel Type L, Dihydropyridine radioligand binding (ligand: [3H] Nitrendipine); assay type: cell membranes, Rattus norvegicus, Wistar, Cerebral cortex, Membrane; settings: Not Active = under 50% inhibition at 10 µM
[3] = DRUGMATRIX: beta-Lactamase enzyme inhibition (substrate: Nitrocefin); parameters: species or system Bacillus cereus; settings: Not Active = under 50% inhibition at 10 µM
[4] = molecular target: Sigma non-opioid intracellular receptor 1 (Homo sapiens, UniProt Q99720); test: DRUGMATRIX: Sigma1 radioligand binding (ligand: [3H] Haloperidol); assay type: cell membranes, Jurkat, Membrane; settings: Not Active = under 50% inhibition at 10 µM; for Ki: read-out: Ki
[5] = molecular target: T1, Caspase-1 (Homo sapiens, UniProt P29466); parameters: species or system Escherichia coli;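 further: Caspase-1 enzyme inhibition assay with a peptide substrate; in other assays of this panel Not Active means under 50% inhibition at 10 µM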
T1 sequence (P29466 whole entry): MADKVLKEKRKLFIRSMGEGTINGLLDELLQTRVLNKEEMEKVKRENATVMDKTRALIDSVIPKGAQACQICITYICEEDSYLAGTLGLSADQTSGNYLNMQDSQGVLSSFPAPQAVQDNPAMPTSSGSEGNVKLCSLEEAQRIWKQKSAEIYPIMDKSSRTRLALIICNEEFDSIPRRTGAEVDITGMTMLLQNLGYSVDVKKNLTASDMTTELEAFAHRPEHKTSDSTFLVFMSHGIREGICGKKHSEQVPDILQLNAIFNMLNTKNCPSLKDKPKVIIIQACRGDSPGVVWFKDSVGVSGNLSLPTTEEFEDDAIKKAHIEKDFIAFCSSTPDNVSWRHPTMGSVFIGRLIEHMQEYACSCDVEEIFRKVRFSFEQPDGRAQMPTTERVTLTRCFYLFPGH

[6] = molecular target: T2, C-X-C chemokine receptor type 1 (Homo sapiens, UniProt P25024); further: in other assays of this panel Not Active means under 50% inhibition at 10 µM
T2 sequence (P25024 whole entry): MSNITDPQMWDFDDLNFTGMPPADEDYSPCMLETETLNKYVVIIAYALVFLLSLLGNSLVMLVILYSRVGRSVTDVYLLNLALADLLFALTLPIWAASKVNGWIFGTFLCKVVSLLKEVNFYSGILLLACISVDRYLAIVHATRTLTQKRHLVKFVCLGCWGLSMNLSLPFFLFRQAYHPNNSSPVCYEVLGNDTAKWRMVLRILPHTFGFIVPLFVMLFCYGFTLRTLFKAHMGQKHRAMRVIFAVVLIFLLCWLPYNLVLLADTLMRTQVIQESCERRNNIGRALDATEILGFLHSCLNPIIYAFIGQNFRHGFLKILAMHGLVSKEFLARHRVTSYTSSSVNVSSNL

[7] = DRUGMATRIX: Sodium/nucleoside co-transporter radioligand binding (ligand: nitrobenzylthioinosine); assay type: cell membranes, Cavia porcellus, Dunkin-Hartley, Cerebral cortex, Membrane; settings: Not Active = under 50% inhibition at 10 µM
[8] = molecular target: Melanocortin receptor 3 (Homo sapiens, UniProt P41968); assay type: cell membranes, HEK293, Membrane; settings: hek293; further: in other assays of this panel Not Active means under 50% inhibition at 10 µM
Sequence of Melanocortin receptor 3 (P41968 whole entry): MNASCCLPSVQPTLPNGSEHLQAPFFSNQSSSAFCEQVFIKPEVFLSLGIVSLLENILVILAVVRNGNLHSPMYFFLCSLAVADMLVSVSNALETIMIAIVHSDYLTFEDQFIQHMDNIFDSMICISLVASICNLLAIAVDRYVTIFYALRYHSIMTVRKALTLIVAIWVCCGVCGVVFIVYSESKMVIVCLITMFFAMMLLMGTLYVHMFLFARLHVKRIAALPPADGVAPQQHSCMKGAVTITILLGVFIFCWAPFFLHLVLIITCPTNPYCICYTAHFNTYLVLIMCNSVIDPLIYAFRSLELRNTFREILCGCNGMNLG

Sequence of Sigma non-opioid intracellular receptor 1 (Q99720 whole entry): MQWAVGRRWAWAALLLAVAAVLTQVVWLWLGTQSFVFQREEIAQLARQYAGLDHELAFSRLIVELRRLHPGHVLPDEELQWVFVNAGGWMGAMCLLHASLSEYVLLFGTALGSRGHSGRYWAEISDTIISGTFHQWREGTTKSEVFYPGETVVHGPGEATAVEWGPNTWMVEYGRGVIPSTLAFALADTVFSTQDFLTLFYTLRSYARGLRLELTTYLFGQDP

| Compound | IC50 [1] | Ki [1] | IC50 [2] | Ki [2] | IC50 [3] | Ki [3] | IC50 ([4]; jurkat) | IC50 [5] | IC50 [6] | IC50 [7] | Ki [7] | IC50 [8] | IC50 ([4]; read-out: IC50) [nM] | Ki [4] [nM] | IC50 ([1]; read-out: IC50) [nM] | Ki ([1]; read-out: Ki) [nM] |
| --- | --- | --- | --- | --- | --- | --- | --- | --- | --- | --- | --- | --- | --- | --- | --- | --- |
| Cn1c(=O)c2[nH]cnc2n(C)c1=O.Cn1c(=O)c2[nH]cnc2n(C)c1=O.NCCN [AMINOPHYLLINE] | Not Active | Not Active | Not Active | Not Active | Not Active | Not Active | Not Active | Not Active | Not Active | Not Active | Not Active | Not Active |  |  |  |  |
| CCC1(CCC(C)C)C(=O)NC(=O)NC1=O [AMOBARBITAL] | Not Active | Not Active | Not Active | Not Active | Not Active | Not Active | Not Active | Not Active | Not Active | Not Active | Not Active | Not Active |  |  |  |  |
| CC1(C)S[C@@H]2[C@H](NC(=O)[C@H](N)c3ccccc3)C(=O)N2[C@H]1C(=O)O [AMPICILLIN] | Not Active | Not Active | Not Active | Not Active | Not Active | Not Active | Not Active | Not Active | Not Active | Not Active | Not Active | Not Active |  |  |  |  |
| COc1ccc(C2C(=O)c3ccccc3C2=O)cc1 [ANISINDIONE] | Not Active | Not Active | Not Active | Not Active | Not Active | Not Active | Not Active | Not Active | Not Active | Not Active | Not Active | Not Active |  |  |  |  |
| O=C1O[C@H]([C@@H](O)CO)C(O)=C1O [ASCORBIC ACID] | Not Active | Not Active | Not Active | Not Active | Not Active | Not Active | Not Active | Not Active | Not Active | Not Active | Not Active | Not Active |  |  |  |  |
| CC(C(=O)O)c1ccc2oc(-c3ccc(Cl)cc3)nc2c1 (stereo not drawn) [BENOXAPROFEN] | Not Active | Not Active | Not Active | Not Active | Not Active | Not Active | Not Active | Not Active | Not Active | Not Active | Not Active | Not Active |  |  |  |  |
| COc1ccc2cc3[n+](cc2c1OC)CCc1cc2c(cc1-3)OCO2.[Cl-] [BERBERINE CHLORIDE] | Not Active | Not Active | Not Active | Not Active | Not Active | Not Active |  | Not Active | Not Active | Not Active | Not Active | Not Active | 1290 | 542 |  |  |
| O=C(O)CCNC(=O)c1ccccc1 [BETAMIPRON] | Not Active | Not Active | Not Active | Not Active | Not Active | Not Active | Not Active | Not Active | Not Active | Not Active | Not Active | Not Active |  |  |  |  |
| CC(=O)Oc1ccc(C(c2ccc(OC(C)=O)cc2)c2ccccn2)cc1 [BISACODYL] | Not Active | Not Active | Not Active | Not Active | Not Active | Not Active | Not Active | Not Active | Not Active | Not Active | Not Active | Not Active |  |  |  |  |
| Cc1cc2c(OCC(CNC(C)(C)C)OC(=O)c3ccccc3)cccc2[nH]1 (stereo not drawn) [BOPINDOLOL] |  |  | Not Active | Not Active | Not Active | Not Active | Not Active | Not Active | Not Active | Not Active | Not Active | Not Active |  |  | 2900 | 2820 |
| Brc1c(NC2=NCCN2)ccc2nccnc12 [BRIMONIDINE] | Not Active | Not Active | Not Active | Not Active | Not Active | Not Active | Not Active | Not Active | Not Active | Not Active | Not Active | Not Active |  |  |  |  |
| CN(C)[C@@H]1C(O)=C(C(N)=O)C(=O)[C@@]2(O)C(O)=C3C(=O)c4c(O)ccc(Cl)c4[C@@](C)(O)[C@H]3C[C@@H]12 [CHLORTETRACYCLINE] | Not Active | Not Active | Not Active | Not Active | Not Active | Not Active | Not Active | Not Active | Not Active | Not Active | Not Active | Not Active |  |  |  |  |
| CN/C(=N\CCSCc1nc[nH]c1C)NC#N [CIMETIDINE] | Not Active | Not Active | Not Active | Not Active | Not Active | Not Active | Not Active | Not Active | Not Active | Not Active | Not Active | Not Active |  |  |  |  |
| COc1cc(N)c(Cl)cc1C(=O)NC1CCN(CCCOc2ccc(F)cc2)CC1OC (stereo not drawn) [CISAPRIDE] |  |  | Not Active | Not Active | Not Active | Not Active |  | Not Active | Not Active | Not Active | Not Active | Not Active | 994 | 418 | 530 | 515 |
| CCC(=O)O[C@]1(C(=O)CCl)[C@@H](C)C[C@H]2[C@@H]3CCC4=CC(=O)C=C[C@]4(C)[C@@]3(F)[C@@H](O)C[C@@]21C [CLOBETASOL PROPIONATE] | Not Active | Not Active | Not Active | Not Active | Not Active | Not Active | Not Active | Not Active | Not Active | Not Active | Not Active | Not Active |  |  |  |  |
| O=C1CN=C(c2ccccc2Cl)c2cc([N+](=O)[O-])ccc2N1 [CLONAZEPAM] | Not Active | Not Active | Not Active | Not Active | Not Active | Not Active | Not Active | Not Active | Not Active | Not Active | Not Active | Not Active |  |  |  |  |
| Nc1ccn([C@@H]2O[C@H](CO)[C@@H](O)[C@@H]2O)c(=O)n1 [CYTARABINE] | Not Active | Not Active | Not Active | Not Active | Not Active | Not Active | Not Active | Not Active | Not Active | Not Active | Not Active | Not Active |  |  |  |  |
| C[C@@H]1C[C@H]2[C@@H]3CCC4=CC(=O)C=C[C@]4(C)[C@@]3(F)[C@@H](O)C[C@]2(C)[C@H]1C(=O)CO [DESOXIMETASONE] | Not Active | Not Active | Not Active | Not Active | Not Active | Not Active | Not Active | Not Active | Not Active | Not Active | Not Active | Not Active |  |  |  |  |
